Results from patent US9670486B2, “RNAi-based method of screening and characterizing drug combinations” (Massachusetts Institute of Technology, priority 2011, dated 2017).

How the values were obtained:
[1] = tested on: Eμ-Myc;p19Arf−/− lymphoma cells; conditions: for single drug cell death: single drug concentration used in the 17AAG-CBL combination
[2] = tested on: Eμ-Myc;p19Arf−/− lymphoma cells; experiment: 8-shRNA signature (GFP competition) with probabilistic nearest neighbors and PCA analysis; format: cell-based, mouse; conditions: shDNAPKcs, LD80-90

Nc1nc2c(c(=O)[nH]1)N(C=O)C(CNc1ccc(C(=O)N[C@@H](CCC(=O)O)C(=O)O)cc1)CN2 (stereo partly drawn) [leucovorin]
effect on 5-FU action [1]: potentiated 5-FU action
cell death ([1]; leucovorin alone at 1 μM, lymphoma cells): no cell death

COc1cccc2c1C(=O)c1c(O)c3c(c(O)c1C2=O)C[C@@](O)(C(=O)CO)C[C@@H]3O[C@H]1C[C@H](N)[C@H](O)[C@H](C)O1 [Dox, doxorubicin]
effect of diminution of DNAPKcs levels on drug response [2]: sensitivity

O=C(O)CCCc1ccc(N(CCCl)CCCl)cc1 [CBL, Chlorambucil]
effect of diminution of DNAPKcs levels on drug response [2]: resistance
single drug cell death [1]: ~20%

C=CCNC1=C2C[C@@H](C)C[C@H](OC)[C@H](O)[C@@H](C)/C=C(\C)[C@H](OC(N)=O)[C@@H](OC)/C=C\C=C(/C)C(=O)NC(=CC1=O)C2=O [17AAG]
single drug cell death [1]: ~20%
